In patent publication US20070027150A1 (priority 2005, published 2007):

target: His-tagged N-terminal ATP binding domain (amino acid residues 9-236) of HSP90α (Homo sapiens, UniProt P07900); assay: HSP90 inhibitor binding potency: TRF competition binding assay; settings: Table I; read-out: Hsp90 IC50 Range
Method: HSP90 Inhibitor Binding Potency: TRF Binding Assay
In this example, the binding potency of HSP90 inhibitors as measured by a TRF binding assay is described.
TRF competition binding assays were performed to determine the binding potency (IC50 values) of HSP90 inhibitors. Purified His-tagged N-terminal ATP binding domain (amino acid residues 9-236) of HSP90α (HSP90α GeneID: 3320; mRNA Sequence NM_005348) was incubated for two hours at room temperature in binding buffer (50 mM HEPES, 6 mM MgCl2, 20 mM KCl and 0.1% BSA) with biotinylated radicicol and progressively higher concentrations of the competing compounds. A fraction of the mixture was transferred to capture plates (coated with streptavidin) and incubated for one hour at room temperature. After washing with DELFIA wash buffer, europium-labeled anti-his antibody was added and incubated for two hours at room temperature, followed by washing with DELFIA buffer. DELFIA enhancement solution was then added. After gentle shaking for 10 minutes, the plates were read in VICTOR for europium counts.

IC50 | Structure (SMILES)
1000 to 10000 nM | COc1ccc(-c2ccccc2C2CC(=O)c3c(C)nc(N)nc3C2)cn1 (centres unmarked) [Compound 74, 2-amino-7-[2-(6-methoxypyridin-3-yl)phenyl]-4-methyl-7,8-dihydroquinazolin-5(6H)-one]
1000 to 10000 nM | COc1ccc(-c2cncnc2)c(C2CC(=O)c3c(C)nc(N)nc3C2)c1 (centres unmarked) [Compound 75, 2-amino-7-(5-methoxy-2-pyrimidin-5-ylphenyl)-4-methyl-7,8-dihydroquinazolin-5(6H)-one]
< 1000 nM | Cc1ccc(F)c(-c2ccccc2C2CC(=O)c3c(C)nc(N)nc3C2)c1 (centres unmarked) [Compound 76, 2-amino-7-(2′-fluoro-5′-methyl-1,1′-biphenyl-2-yl)-4-methyl-7,8-dihydroquinazolin-5(6H)-one]
< 1000 nM | Cc1ccc(-c2ccccc2C2CC(=O)c3c(C)nc(N)nc3C2)c(F)c1 (centres unmarked) [Compound 77, 2-amino-7-(2′-fluoro-4′-methyl-1,1′-biphenyl-2-yl)-4-methyl-7,8-dihydroquinazolin-5(6H)-one]
< 1000 nM | COc1cccc(C2=CCCCC2)c1C1CC(=O)c2c(C)nc(N)nc2C1 (centres unmarked) [Compound 78, 2-amino-7-(2-cyclohex-1-en-1-yl-6-methoxyphenyl)-4-methyl-7,8-dihydroquinazolin-5(6H)-one]
< 1000 nM | Cc1nc(N)nc2c1C(=O)CC(c1ccccc1-c1ccccc1Cl)C2 (centres unmarked) [Compound 79, 2-amino-7-(2′-chloro-1,1′-biphenyl-2-yl)-4-methyl-7,8-dihydroquinazolin-5(6H)-one]
< 1000 nM | Cc1nc(N)nc2c1C(=O)CC(c1ccccc1-c1cccnc1Cl)C2 (centres unmarked) [Compound 80, 2-amino-7-[2-(2-chloropyridin-3-yl)phenyl]-4-methyl-7,8-dihydroquinazolin-5(6H)-one]
< 1000 nM | Cc1nc(N)nc2c1C(=O)CC(c1ccccc1-c1cnccc1Cl)C2 (centres unmarked) [Compound 81, 2-amino-7-[2-(4-chloropyridin-3-yl)phenyl]-4-methyl-7,8-dihydroquinazolin-5(6H)-one]
1000 to 10000 nM | Cc1nc(N)nc2c1C(=O)CC(c1ccccc1-c1ccnc(Cl)c1)C2 (centres unmarked) [Compound 82, 2-amino-7-[2-(2-chloropyridin-4-yl)phenyl]-4-methyl-7,8-dihydroquinazolin-5(6H)-one]
< 1000 nM | Cc1nc(N)nc2c1C(=O)CC(c1ccccc1-c1cccc(F)c1F)C2 (centres unmarked) [Compound 83, 2-amino-7-(2′,3′-difluoro-1,1′-biphenyl-2-yl)-4-methyl-7,8-dihydroquinazolin-5(6H)-one]
< 1000 nM | Cc1nc(N)nc2c1C(=O)CC(c1ccccc1-c1ccc(F)cc1F)C2 (centres unmarked) [Compound 84, 2-amino-7-(2′,4′-difluoro-1,1′-biphenyl-2-yl)-4-methyl-7,8-dihydroquinazolin-5(6H)-one]
< 1000 nM | Cc1nc(N)nc2c1C(=O)CC(c1ccccc1-c1c(F)cccc1F)C2 (centres unmarked) [Compound 85, 2-amino-7-(2′,6′-difluoro-1,1′-biphenyl-2-yl)-4-methyl-7,8-dihydroquinazolin-5(6H)-one]
< 1000 nM | Cc1nc(N)nc2c1C(=O)CC(c1ccc(F)cc1-c1ccccc1F)C2 (centres unmarked) [Compound 86, 2-amino-7-(5,2′-difluoro-biphenyl-2-yl)-4-methyl-7,8-dihydro-6H-quinazolin-5-one]
< 1000 nM | Cc1nc(N)nc2c1C(=O)CC(c1ccc(F)cc1-c1cccnc1F)C2 (centres unmarked) [Compound 87, 2-amino-7-[4-fluoro-2-(2-fluoropyridin-3-yl)phenyl]-4-methyl-7,8-dihydroquinazolin-5(6H)-one]
< 1000 nM | Cc1nc(N)nc2c1C(=O)CC(c1cc(F)ccc1-c1cccnc1F)C2 (centres unmarked) [Compound 88, 2-amino-7-[5-fluoro-2-(2-fluoropyridin-3-yl)phenyl]-4-methyl-7,8-dihydroquinazolin-5(6H)-one]
< 1000 nM | Cc1nc(N)nc2c1C(=O)CC(c1ccc(F)cc1-c1cccc(F)n1)C2 (centres unmarked) [Compound 89, 2-amino-7-[4-fluoro-2-(6-fluoro-pyridin-2-yl)-phenyl]-4-methyl-7,8-dihydro-6H-quinazolin-5-one]
< 1000 nM | Cc1nc(N)nc2c1C(=O)CC(c1ccccc1-c1ccccc1C(N)=O)C2 (centres unmarked) [Compound 90, 2′-(2-amino-4-methyl-5-oxo-5,6,7,8-tetrahydroquinazolin-7-yl)-1,1′-biphenyl-2-carboxamide]
1000 to 10000 nM | Cc1nc(N)nc2c1C(=O)CC(c1ccccc1-c1cccc(C(N)=O)c1)C2 (centres unmarked) [Compound 91, 2′-(2-amino-4-methyl-5-oxo-5,6,7,8-tetrahydroquinazolin-7-yl)-1,1′-biphenyl-3-carboxamide]
1000 to 10000 nM | CC(=O)c1cccc(-c2ccccc2C2CC(=O)c3c(C)nc(N)nc3C2)n1 (centres unmarked) [Compound 92, 7-[2-(6-acetylpyridin-2-yl)phenyl]-2-amino-4-methyl-7,8-dihydroquinazolin-5(6H)-one]
> 10000 nM | Cc1nc(N)nc2c1C(=O)CC(c1ccccc1-c1cccc(N(C)C)c1)C2 (centres unmarked) [Compound 93, 2-amino-7-[3′-(dimethylamino)-1,1′-biphenyl-2-yl]-4-methyl-7,8-dihydroquinazolin-5(6H)-one]
1000 to 10000 nM | CCOc1cccc(-c2ccccc2C2CC(=O)c3c(C)nc(N)nc3C2)n1 (centres unmarked) [Compound 94, 2-amino-7-[2-(6-ethoxy-pyridin-2-yl)-phenyl]-4-methyl-7,8-dihydro-6H-quinazolin-5-one]
< 1000 nM | COc1ccccc1-c1cc(F)ccc1C1CC(=O)c2c(C)nc(N)nc2C1 (centres unmarked) [Compound 95, 2-amino-7-(5-fluoro-2′-methoxy-biphenyl-2-yl)-4-methyl-7,8-dihydro-6H-quinazolin-5-one]
< 1000 nM | COc1ccc(F)cc1-c1ccccc1C1CC(=O)c2c(C)nc(N)nc2C1 (centres unmarked) [Compound 96, 2-amino-7-(5′-fluoro-2′-methoxy-1,1′-biphenyl-2-yl)-4-methyl-7,8-dihydroquinazolin-5(6H)-one]
< 1000 nM | COc1cccc(-c2cccnc2F)c1C1CC(=O)c2c(C)nc(N)nc2C1 (centres unmarked) [Compound 97, 2-amino-7-[2-(2-fluoropyridin-3-yl)-6-methoxyphenyl]-4-methyl-7,8-dihydroquinazolin-5(6H)-one]
< 1000 nM | COc1ccc(-c2cccnc2F)c(C2CC(=O)c3c(C)nc(N)nc3C2)c1 (centres unmarked) [Compound 98, 2-amino-7-[2-(2-fluoropyridin-3-yl)-5-methoxyphenyl]-4-methyl-7,8-dihydroquinazolin-5(6H)-one]
< 1000 nM | COc1ncccc1-c1cc(F)ccc1C1CC(=O)c2c(C)nc(N)nc2C1 (centres unmarked) [Compound 99, 2-amino-7-[4-fluoro-2-(2-methoxy-pyridin-3-yl)-phenyl]-4-methyl-7,8-dihydro-6H-quinazolin-5-one]
1000 to 10000 nM | Cc1nc(N)nc2c1C(=O)CC(c1ccccc1-c1cncc3ccccc13)C2 (centres unmarked) [Compound 100, 2-amino-7-(2-isoquinolin-4-ylphenyl)-4-methyl-7,8-dihydroquinazolin-5(6H)-one]
< 1000 nM | Cc1nc(N)nc2c1C(=O)CC(c1ccccc1-c1cc(F)cnc1Cl)C2 (centres unmarked) [Compound 101, 2-amino-7-[2-(2-chloro-5-fluoropyridin-3-yl)phenyl]-4-methyl-7,8-dihydroquinazolin-5(6H)-one]
1000 to 10000 nM | CC(=O)Nc1cccc(-c2ccccc2C2CC(=O)c3c(C)nc(N)nc3C2)c1 (centres unmarked) [Compound 102, N-[2′-(2-amino-4-methyl-5-oxo-5,6,7,8-tetrahydroquinazolin-7-yl)-1,1′-biphenyl-3-yl]acetamide]
